Source: patent US20220280503A1, “COMPOSITIONS OF OPIOID ANTAGONISTS, IMPLANT DEVICES, AND TREATMENT METHODS FOR OPIOID USE DISORDER” (Delpor, Inc., priority 2019, published 2022)
Counter-ions that a name gives are not always drawn.

Assay: in vitro release of naltrexone from drug delivery devices (Example 1)
Format: physicochemical
Conditions: porous membrane about 5-20 mm^2 diffusible area, approximately 70% porosity; phosphate buffer, 37° C.
Source text: Naltrexone base was compounded with anisic acid at acid:drug ratios of 0:[…] (molar basis), tableted with polyvinylpyrrolidone as a binder and stearic acid as a lubricant (12% and 2% of the final formulation mass, respectively), and loaded into delivery devices equipped with 0.1 micron polyvinylidene fluoride (DURAPORE®) membranes. In a subset of devices, approximately 75% of the available membrane surface area was blocked to measure the influence of surface area upon output rate. All devices were vacuum back-filled with phosphate buffer and transferred to jars containing a volume (˜100 mL) of the same buffer. The sealed jars were then incubated at 37° C., and small aliquots (˜500 μL) of receiving buffer were withdrawn at selected time points to quantify the released drug by high pressure liquid chromatography (HPLC).

O=C1CC[C@@]2(O)[C@H]3Cc4ccc(O)c5c4[C@@]2(CCN3CC2CC2)[C@H]1O5 [naltrexone HCl]
in vitro elution rate of naltrexone from device: over 50 mg/day
